Legend:
Format in all cases: cell-based
[1] = test system: HepG2; assay: MTT cytotoxicity assay, HepG2 (liver cancer); conditions: Homo sapiens
Procedure, shortened: (§1)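 Cells seeded at 7000/well for 24 h, then exposed to sphingolipid metabolite mimetics at final 0 to 200 μM. MTT added for 4 h at 37° C; formazan dissolved in DMSO and absorbance read at 570 nm.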

[2] = test system: A431; assay: MTT cytotoxicity assay, A431 (squamous carcinoma); conditions: Homo sapiens, A-431
Procedure, shortened: as §1

[3] = test system: SA; assay: MTT cytotoxicity assay, SA (pancreatic cancer as headed)
Procedure, shortened: as §1

[4] = test system: MCF-7; assay: MTT cytotoxicity assay, MCF-7 (breast cancer); conditions: Homo sapiens, MCF7; Breast Cancer MCF-7, MTT
Procedure, shortened: as §1

[5] = test system: SiHa; assay: MTT cytotoxicity assay, SiHa (ovarian cancer as headed); conditions: Homo sapiens, Cervical Cancer SiHa
[6] = test system: SW620; assay: MTT cytotoxicity assay, SW620 (colon cancer); conditions: Homo sapiens, SW-620
[7] = test system: SW480; assay: MTT cytotoxicity assay, SW480 (colon cancer); conditions: Homo sapiens
[8] = test system: multiple types of cancer cells; assay: MTT cytotoxicity, statements over several cancer cell lines
Description: Cell survival after exposure to the sphingolipid metabolite mimetics was examined by MTT cytotoxicity assay. HepG2, A431, HeLa, MCF-7 and SA cells (7000 cells/well) were seeded in each well of a 96-well plate for 24 h. New medium was added to give final concentrations of 0 to 200 μM of the sphingolipid metabolite mimetics. Then, 50 μl of 1 mg/ml 3-(4,5-dimethylthiazol-2-yl)-2,5-diphenyltetrazolium bromide (MTT, Sigma-Aldrich Chemical) was added to each well for 4 h incubation at 37° C. The purple formazan formed was then solubilized by DMSO and absorbance at 570 nm was read by a microplate reader (Molecular Devices, Sunnyvale, Calif.).

[9] = test system: MES-SA cells; assay: Apoptosis assay, Hoechst 33342 fluorescence staining; conditions: doses of their IC50 for 8 h
Description: The cells were then washed with PBS and stained with Hoechst 33342 (from sigma chemical) for 20 min in the dark. Morphologic changes were analyzed under a fluorescence microscope. The experiment was repeated three times.

CCCCCCCCCCCCCCNC(=O)[C@@H](NC(=O)c1cc2ccccc2o1)[C@@H](C)O [NZJU37, N-((2S,3R)-3-hydroxy-1-oxo-1-(tetradecylamino)butan-2-yl)-benzofuran-2-carboxamide]
IC50 [1]: 23.4 ± 1.19 µM | IC50 [2]: 20.09 ± 0.16 µM | IC50 [3]: 9.61 ± 0.56 µM | IC50 [4]: 23.4 ± 1.19 µM | IC50 [5]: 14.2 ± 1.84 µM | IC50 [6]: 26.7 ± 2.48 µM | IC50 [7]: 22.8 µM | IC50 ([8]; all five cell lines tested, read-out: IC50 values): < 30 µM | direct anti-cancer cell activity ([8]; summary statement): direct anti-cancer cell activity | apoptotic cell death, fluorescent micrographs (FIG. 30) [9]: apoptotic cell death

From US20150031892A1, “SPHINGOLIPID METABOLITE MIMETICS” (Zhejiang University, priority 2012, published 2015)
